Measured values taken from patent publication US9951063B2, “8-(piperazin-1-yl)-1,2,3,4-tetrahydro-isoquinoline derivatives” (IDORSIA PHARMACEUTICALS LTD, priority 2014, dated 2018).

These molecules were tested against human CXCR3A (Homo sapiens (Human), UniProt P49682) (assay: FLIPR assay (inhibition of CXCL10-induced calcium signal)). Details: engineered CHO-K1 cells expressing human CXCR3A coupled to Galpha(16); Fluo-4-AM; CXCL10 agonist 20 nM; mean values where determined several times.
Format: cell-based
In short: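 CHO-K1 cells expressing human CXCR3A coupled to Gα16 were loaded with Fluo-4-AM for 1 h in HBSS/20 mM Hepes pH 7.4 with probenecid. Compound was added, then CXCL10 (20 nM as dispensed). Baseline-subtracted peak fluorescence gave inhibition curves and IC50, averaged over repeats.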

human CXCR3A, sequence (P49682 whole entry): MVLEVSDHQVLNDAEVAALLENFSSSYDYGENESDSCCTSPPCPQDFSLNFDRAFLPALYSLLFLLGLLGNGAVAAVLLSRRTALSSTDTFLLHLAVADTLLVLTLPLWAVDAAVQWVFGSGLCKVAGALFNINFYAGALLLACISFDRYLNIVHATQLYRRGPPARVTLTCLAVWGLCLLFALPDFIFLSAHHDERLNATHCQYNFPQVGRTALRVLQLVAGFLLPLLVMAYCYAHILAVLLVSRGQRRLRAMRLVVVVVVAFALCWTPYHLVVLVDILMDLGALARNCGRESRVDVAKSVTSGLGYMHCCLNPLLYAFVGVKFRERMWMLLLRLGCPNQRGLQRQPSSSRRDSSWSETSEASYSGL

`C[C@@H]1CN(c2cccc3c2CN(C(=O)CCc2ccc(Cl)cc2)CC3)CCN1C(=O)Cn1cnc2cccnc21` [Example 82, 3-(4-Chloro-phenyl)-1-{8-[(R)-4-(2-imidazo[4,5-b]pyridin-3-yl-acetyl)-3-methyl-piperazin-1-yl]-3,4-dihydro-1H-isoquinolin-2-yl}-propan-1-one] and `C[C@@H]1CN(c2cccc3c2CN(C(=O)CCc2ccc(Cl)c(Cl)c2)CC3)CCN1C(=O)Cn1cnc2cccnc21` [Example 84, 3-(3,4-Dichloro-phenyl)-1-{8-[(R)-4-(2-imidazo[4,5-b]pyridin-3-yl-acetyl)-3-methyl-piperazin-1-yl]-3,4-dihydro-1H-isoquinolin-2-yl}-propan-1-one] are within 1.5-fold of each other in IC50: 0.0881 µM for the first, 0.0997 µM for the second.

Going from `C[C@@H]1CN(c2cccc3c2CN(C(=O)CCc2ccccc2)CC3)CCN1C(=O)Cn1cnc2cccnc21` [Example 83, 1-{8-[(R)-4-(2-Imidazo[4,5-b]pyridin-3-yl-acetyl)-3-methyl-piperazin-1-yl]-3,4-dihydro-1H-isoquinolin-2-yl}-3-phenyl-propan-1-one] to `C[C@@H]1CN(c2cccc3c2CN(c2ccccc2)CC3)CCN1C(=O)Cn1cnc2cccnc21` [Example 101, 2-Imidazo[4,5-b]pyridin-3-yl-1-[(R)-2-methyl-4-(2-phenyl-1,2,3,4-tetrahydro-isoquinolin-8-yl)-piperazin-1-yl]-ethanone], the IC50 falls from 0.45 µM to 0.0147 µM (31-fold). The second is the more potent here.

`C[C@@H]1CN(c2cccc3c2CN(C(=O)c2ccc4ncccc4c2)CC3)CCN1C(=O)Cn1cnc2cccnc21` [Example 85, 2-Imidazo[4,5-b]pyridin-3-yl-1-{(R)-2-methyl-4-[2-(quinoline-6-carbonyl)-1,2,3,4-tetrahydro-isoquinolin-8-yl]-piperazin-1-yl}-ethanone] and `C[C@@H]1CN(c2cccc3c2CN(C(=O)c2ccnn2C)CC3)CCN1C(=O)Cn1cnc2cccnc21` [Example 89, 2-Imidazo[4,5-b]pyridin-3-yl-1-{(R)-2-methyl-4-[2-(2-methyl-2H-pyrazole-3-carbonyl)-1,2,3,4-tetrahydro-isoquinolin-8-yl]-piperazin-1-yl}-ethanone] are within 1.5-fold of each other in IC50: 0.866 µM for the first, 0.955 µM for the second.

Compared with `C[C@@H]1CN(c2cccc3c2CN(C(=O)Cn2cnc4ccccc42)CC3)CCN1C(=O)Cn1cnc2cccnc21` [Example 86, 1-{(R)-4-[2-(2-Benzoimidazol-1-yl-acetyl)-1,2,3,4-tetrahydro-isoquinolin-8-yl]-2-methyl-piperazin-1-yl}-2-imidazo[4,5-b]pyridin-3-yl-ethanone], `C[C@@H]1CN(c2cccc3c2CN(C(=O)Cn2cccn2)CC3)CCN1C(=O)Cn1cnc2cccnc21` [Example 87, 2-Imidazo[4,5-b]pyridin-3-yl-1-{(R)-2-methyl-4-[2-(2-pyrazol-1-yl-acetyl)-1,2,3,4-tetrahydro-isoquinolin-8-yl]-piperazin-1-yl}-ethanone] is 7.9-fold higher in IC50: 0.686 µM for the first, 5.42 µM for the second. The first is the more potent here.

Going from `C[C@@H]1CN(c2cccc3c2CN(C(=O)CN2CCOCC2)CC3)CCN1C(=O)Cn1cnc2cccnc21` [Example 88, 2-Imidazo[4,5-b]pyridin-3-yl-1-{(R)-2-methyl-4-[2-(2-morpholin-4-yl-acetyl)-1,2,3,4-tetrahydro-isoquinolin-8-yl]-piperazin-1-yl}-ethanone] to `C[C@@H]1CN(c2cccc3c2CN(c2ncccn2)CC3)CCN1C(=O)Cn1cnc2cccnc21` [Example 102, 2-Imidazo[4,5-b]pyridin-3-yl-1-[(R)-2-methyl-4-(2-pyrimidin-2-yl-1,2,3,4-tetrahydro-isoquinolin-8-yl)-piperazin-1-yl]-ethanone], the IC50 falls from 1.91 µM to 0.0291 µM (66-fold). The second is the more potent here.

`Cc1ccc(N2CCc3cccc(N4CCN(C(=O)Cn5cnc6cccnc65)[C@H](C)C4)c3C2)nc1` [Example 90, 2-Imidazo[4,5-b]pyridin-3-yl-1-{(R)-2-methyl-4-[2-(5-methyl-pyridin-2-yl)-1,2,3,4-tetrahydro-isoquinolin-8-yl]-piperazin-1-yl}-ethanone] and `C[C@@H]1CN(c2cccc3c2CN(c2ccc(F)cn2)CC3)CCN1C(=O)Cn1cnc2cccnc21` [Example 91, 1-{(R)-4-[2-(5-Fluoro-pyridin-2-yl)-1,2,3,4-tetrahydro-isoquinolin-8-yl]-2-methyl-piperazin-1-yl}-2-imidazo[4,5-b]pyridin-3-yl-ethanone] are within 1.5-fold of each other in IC50: 0.0112 µM for the first, 0.00801 µM for the second.

`Cc1ccc(N2CCc3cccc(N4CCN(C(=O)Cn5cnc6cccnc65)[C@H](C)C4)c3C2)cn1` [Example 92, 2-Imidazo[4,5-b]pyridin-3-yl-1-{(R)-2-methyl-4-[2-(6-methyl-pyridin-3-yl)-1,2,3,4-tetrahydro-isoquinolin-8-yl]-piperazin-1-yl}-ethanone] and `C[C@@H]1CN(c2cccc3c2CN(c2ccc(C(F)(F)F)nc2)CC3)CCN1C(=O)Cn1cnc2cccnc21` [Example 100, 2-Imidazo[4,5-b]pyridin-3-yl-1-{(R)-2-methyl-4-[2-(6-trifluoromethyl-pyridin-3-yl)-1,2,3,4-tetrahydro-isoquinolin-8-yl]-piperazin-1-yl}-ethanone] are within 1.5-fold of each other in IC50: 0.00097 µM for the first, 0.00125 µM for the second.

`C[C@@H]1CN(c2cccc3c2CN(c2ccc(Cl)cc2)CC3)CCN1C(=O)Cn1cnc2cccnc21` [Example 93, 1-{(R)-4-[2-(4-Chloro-phenyl)-1,2,3,4-tetrahydro-isoquinolin-8-yl]-2-methyl-piperazin-1-yl}-2-imidazo[4,5-b]pyridin-3-yl-ethanone] and `C[C@@H]1CN(c2cccc3c2CN(c2ccc(F)cc2)CC3)CCN1C(=O)Cn1cnc2cccnc21` [Example 99, 1-{(R)-4-[2-(4-Fluoro-phenyl)-1,2,3,4-tetrahydro-isoquinolin-8-yl]-2-methyl-piperazin-1-yl}-2-imidazo[4,5-b]pyridin-3-yl-ethanone] are within 1.5-fold of each other in IC50: 0.00755 µM for the first, 0.0083 µM for the second.

Compared with `COc1ccccc1N1CCc2cccc(N3CCN(C(=O)Cn4cnc5cccnc54)[C@H](C)C3)c2C1` [Example 94, 2-Imidazo[4,5-b]pyridin-3-yl-1-{(R)-4-[2-(2-methoxy-phenyl)-1,2,3,4-tetrahydro-isoquinolin-8-yl]-2-methyl-piperazin-1-yl}-ethanone], `COc1cccc(N2CCc3cccc(N4CCN(C(=O)Cn5cnc6cccnc65)[C@H](C)C4)c3C2)c1` [Example 97, 2-Imidazo[4,5-b]pyridin-3-yl-1-{(R)-4-[2-(3-methoxy-phenyl)-1,2,3,4-tetrahydro-isoquinolin-8-yl]-2-methyl-piperazin-1-yl}-ethanone] is 14-fold lower in IC50: 0.0619 µM for the first, 0.00438 µM for the second.

First: C[C@@H]1CN(c2cccc3c2CN(c2ccc(C#N)cc2)CC3)CCN1C(=O)Cn1cnc2cccnc21 [Example 95, 4-{8-[(R)-4-(2-Imidazo[4,5-b]pyridin-3-yl-acetyl)-3-methyl-piperazin-1-yl]-3,4-dihydro-1H-isoquinolin-2-yl}-benzonitrile]
Second: C[C@@H]1CN(c2cccc3c2CN(c2ccc(C(F)(F)F)cc2)CC3)CCN1C(=O)Cn1cnc2cccnc21 [Example 96, 2-Imidazo[4,5-b]pyridin-3-yl-1-{(R)-2-methyl-4-[2-(4-trifluoromethyl-phenyl)-1,2,3,4-tetrahydro-isoquinolin-8-yl]-piperazin-1-yl}-ethanone]
The IC50 of the first is 3.3-fold lower: 0.0078 µM for the first, 0.0255 µM for the second. The first is the more potent here.

Work on `C[C@@H]1CN(c2cccc3c2CN(c2ccc(OC(F)(F)F)cc2)CC3)CCN1C(=O)Cn1cnc2cccnc21` [Example 98, 2-Imidazo[4,5-b]pyridin-3-yl-1-{(R)-2-methyl-4-[2-(4-trifluoromethoxy-phenyl)-1,2,3,4-tetrahydro-isoquinolin-8-yl]-piperazin-1-yl}-ethanone] yielded an IC50 of 0.0116 µM.
